Assay results: patent US20240424115A1, “LONG-ACTING INTERLEUKIN-15 RECEPTOR AGONISTS AND RELATED IMMUNOTHERAPEUTIC COMPOSITIONS AND METHODS” (Nektar Therapeutics, priority 2017, published 2024)
pKd: −log10 of the molar value. Blank lines part the entries; values can stand above or below the substance they belong to.

Legend:
IL-15Rα:Fc [1] = test: SPR (BIAcore), IL-15Rα:Fc captured by immobilised goat anti-human Fc
IL-15Rα:Fc [2] = test: SPR (BIAcore), IL-15Rα:Fc captured by immobilised goat anti-human Fc, KD from kd/ka
IL-15Rα:Fc [3] = test: SPR (BIAcore), IL-15Rα:Fc captured by immobilised goat anti-human Fc, test article injected in 3-fold dilutions from 10 µM
CTLL-2 cells = test: Potency assay based on STAT5 phosphorylation in CTLL-2 cells; type: cell-based, murine; settings: for EC50 (ng/mL) CTLL-2 pSTAT5: Table 2B
Protocol: In the phospho-STAT5 assay following receptor binding, downstream cell signaling can then activate Signal Transducer and Activator of Transcription 5 (STAT5) through phosphorylation to promote gene expression to induce cell proliferation. The activation of phosho-STAT5 is measured in CTLL-2 cells, a murine T lymphocyte cell line, using the phospho-STAT5/total STAT5 multiplexed assay (Meso Scale Discovery, MD) in response to sample and reference treatment for ˜10 minutes.
One day prior to the assay, CTLL-2 cells were split into fresh growth medium [RPMI 1640 supplemented with 10% FBS, 10% T-cell culture supplement (catalog #354115, Corning, Inc., Tewksbury, MA), 2 mM L-glutamate, and 1 mM sodium pyruvate]. On the day of assay, cells were pre-incubated in assay medium (RPMI 1640 supplemented with 1% FBS, 2 mM L-glutamate, and 1 mM sodium pyruvate) for at least four hours, and then plated in assay medium in a 96-well plate at 50,000 cells/well. Dilutions of the test article were prepared in an appropriate buffer immediately prior to assay. Stimulation of CTLL-2 cells was initiated by the transfer of 25X test article solutions to triplicate wells containing CTLL-2 cells. Plates were incubated at 37° C., 5% CO2 for 10 minutes, and the reaction was stopped by cell lysis. Detection of phospho-STAT5 and total STAT5 protein levels in cell lysates was performed using the MSD Phospho (Tyr694)/Total STATa,b Whole Cell Lysate Kit (Meso Scale Discovery, MD).

[4] = PK (MRT) of long-acting IL-15 receptor agonists (Table 2B); type: in vivo; settings: species not stated
IL-15Rα = IL-15Rα (Homo sapiens, UniProt Q13261); test: Receptor affinity for IL-15Rα by surface plasmon resonance (BIAcore); type: binding; settings: Table 2B; read-out: IL-15Rα KD
Sequence of IL-15Rα (Q13261 31-205 limits assumed): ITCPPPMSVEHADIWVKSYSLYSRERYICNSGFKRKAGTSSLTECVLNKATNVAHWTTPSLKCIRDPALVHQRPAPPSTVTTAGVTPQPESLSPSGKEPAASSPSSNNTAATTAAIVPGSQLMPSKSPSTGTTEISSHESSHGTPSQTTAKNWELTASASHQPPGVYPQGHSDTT
Protocol: The affinities of IL-15 and exemplary long acting rIL-15 receptor agonists were measured using Surface Plasmon Resonance (“SPR”) using a BIAcore™ SPR system. Briefly, the surface of a Biacore CM5 sensor chip was activated using a 1:1 mixture of NHS: EDC to generate active NHS esters. Goat anti-human Fc antibody was covalently attached to the surface by injecting it for five minutes in 10 mM sodium acetate (pH 4). There were approximately 8000 RU of antibodies bound to the surface. Any remaining NHS ester was then quenched with ethanolamine.
At the initiation of each injection cycle, IL-15-Rα-Fc was captured on a sensor chip channel by a five-minute injection step in PBSP. Typically, 150-200 RU of receptors were bound on the surface.
(§1) Long acting rIL-15 receptor agonist test articles were diluted to 10 µM in PBS (containing 0.05% Tween 20 and 0.1 mg/ml BSA). A series of 3-fold dilutions were made and injected onto a sensor chip which was coated with IL-15Rα. The affinities were measured by determining the ka and kd rates separately, and the ratio between kd and ka was used to calculate the Kd values.
The affinities of exemplary long-acting IL-15 receptor agonists (test articles) for the IL-15 α receptor were measured and compared to IL-15. Affinity was measured by BIAcore using IL-15Rα:Fc captured by immobilized anti-Fc.
as §1, with “The” for “Long acting rIL-15 receptor agonist”, “μM” for “µM”, “between ka and” for “between”, “kd” for “kd and ka”, “[…]” for “Kd”

human PBMCs = test: HuPBMC-pStat5 assay (flow cytometry, lymphocyte subpopulations); type: cell-based; settings: for EC50 (ng/ml) pSTAT5 CD56bright NK: Table 3, CD56bright NK cells
Protocol: The potency of IL-15 or long acting IL-15 R agonists on various human lymphocyte subpopulations was determined by phospho-STAT5 (Y694) dose response assay. Frozen human PBMCs from multiple donors were supplied by AllCells. 1×10^6 cells/100ul were cultured in complete RPMI media for 2 hours and then incubated with the indicated concentrations (10,000ng/ml-0.001ng/ml serial dilutions) of IL-15 or conjugates for 20minutes at 37c. The cells were then fixed (using BD Cytofix) and permeabilized (using 100% pre-chilled methanol) and stained with antibodies for CD3, CD4, CD8, CD4-Tregs (CD4+CD25+Foxp3+), CD56 and phosphorylated STAT5 (Y694) before analysis by flow cytometry. Concentration-response relationships were used to calculate the EC50 values.
Assessment of in-vitro activity of exemplary long-acting IL-15 receptor agonists (e.g., Conjugates 1, 3 and 5) was carried out by investigating signaling in NK cell subsets of human PBMCs as shown in FIGS. 10A (CD56bright cells) and 10B (CD56dim cells). STAT5 phosphorylation was evaluated as previously described for assessing IL-15 signaling activity of the long acting IL-15 receptor agonists.
A second study was conducted to investigate/compare the pStat5 response of human PBMCs obtained from two donors (CD3, CD4, CD8, CD56 (bright and dim) and CD4-Tregs (CD25+Foxp3+)) to IL-15, Conjugate 1 and Conjugate 5. An […] dose response was examined using a 10-fold dilution with a dose range of 0.001-10000 ng/ml and a 20 min stimulation. Each of the test articles was diluted in IL-15 buffer+0.1% BSA.
Assessment of in vitro activity of Conjugate 1 was carried out by investigating NK and CD8 JAK/STAT signaling after treatment of human PBMCs with IL-15 or Conjugate 1 at a dose range of 0.001-10000 ng/ml. STAT5 phosphorylation was assessed as previously described.

Sequence of IL-15Rα:Fc (Q13261 31-205): as the sequence (Q13261 31-205 limits assumed) above

Substance: mono-PEG2-RU-ButryALD-20K]-IL-15 (Conjugate 4) (from UniProt P40933 49-162) (ligand)
pKd (IL-15Rα:Fc [1]): 9.67

Substance: Recombinant human IL-15 (rIL-15), SEQ ID NO: 1 (from UniProt P40933 49-162) (ligand)
pKd (IL-15Rα:Fc [1]): 9.59
pKd (IL-15Rα:Fc [2]): 9.59
koff (IL-15Rα:Fc [3]): 0.000149 s⁻¹
kon (IL-15Rα:Fc [3]): 578000 M⁻¹ s⁻¹

Substance: [Mono-PEG2-RU-ButryALD-40K]-IL-15 (Conjugate 3) (from UniProt P40933 49-162) (ligand)
pKd (IL-15Rα:Fc [1]): 9.39

Substance: [Mono-PEG2-RU-ButryALD-40K]-IL-15 [Conjugate 3]
EC50 (ng/mL) CTLL-2 pSTAT5 (CTLL-2 cells): 16.80 ng/mL
PK (MRT) [4]: 30 h
pKd (IL-15Rα): 9.39
EC50 (ng/ml) pSTAT5 CD56bright NK (human PBMCs): 69.76 ng/ml

Further lines, with some results ahead:

pKd (IL-15Rα:Fc [1]): 9.84
Substance: mono-mPEG-ButryALD-40k-IL-15 (Conjugate 5) (from UniProt P40933 49-162) (ligand)

EC50 (ng/mL) CTLL-2 pSTAT5 (CTLL-2 cells): 1.45 ng/mL
pKd (IL-15Rα): 9.84
Substance: mono-mPEG-ButryALD-40k-IL-15 [Conjugate 5]
PK (MRT) [4]: 25 h
EC50 (ng/ml)-% pSTAT5 CD3 donor1 (human PBMCs; CD3 cells, donor1, 20 min stimulation): 1.3 ng/ml
EC50 (ng/ml)-% pSTAT5 CD3 donor2 (human PBMCs; CD3 cells, donor2, 20 min stimulation): 1.7 ng/ml
EC50 (ng/ml)-% pSTAT5 Treg donor1 (human PBMCs; CD4-Treg cells, donor1): 0.44 ng/ml
EC50 (ng/ml)-% pSTAT5 Treg donor2 (human PBMCs; CD4-Treg cells, donor2): 0.45 ng/ml
EC50 (ng/ml)-% pSTAT5 CD4 donor1 (human PBMCs; CD4 cells, donor1): 1.3 ng/ml
EC50 (ng/ml)-% pSTAT5 CD4 donor2 (human PBMCs; CD4 cells, donor2): 1.14 ng/ml
EC50 (ng/ml)-% pSTAT5 CD8 donor1 (human PBMCs; CD8 cells, donor1): 1.4 ng/ml
EC50 (ng/ml)-% pSTAT5 CD8 donor2 (human PBMCs; CD8 cells, donor2): 2.5 ng/ml
EC50 (ng/ml)-% pSTAT5 CD56bright donor1 (human PBMCs; CD56bright cells, donor1): 5.1 ng/ml
EC50 (ng/ml)-% pSTAT5 CD56bright donor2 (human PBMCs; CD56bright cells, donor2): 4.5 ng/ml
EC50 (ng/ml)-% pSTAT5 CD56dim donor1 (human PBMCs; CD56dim cells, donor1): 16.48 ng/ml
EC50 (ng/ml)-% pSTAT5 CD56dim donor2 (human PBMCs; CD56dim cells, donor2): 27.12 ng/ml
EC50 (ng/ml) pSTAT5 CD56bright NK (human PBMCs): 32.26 ng/ml
EC50 (ng/ml)-% pSTAT5 CD3 (human PBMCs; Table 7 Summary Table, CD3): 1.3 ng/ml
EC50 (ng/ml)-% pSTAT5 CD4 (human PBMCs; Table 7 Summary Table, CD4): 1.3 ng/ml
EC50 (ng/ml)-% pSTAT5 CD8 (human PBMCs; Table 7 Summary Table, CD8): 1.4 ng/ml
EC50 (ng/ml)-% pSTAT5 CD56bright (human PBMCs; Table 7 Summary Table, CD56bright): 5.1 ng/ml
EC50 (ng/ml)-% pSTAT5 CD56dim (human PBMCs; Table 7 Summary Table, CD56dim): 16.48 ng/ml
EC50 (ng/ml)-% pSTAT5 Treg (human PBMCs; Table 7 Summary Table, Treg): 0.44 ng/ml
IL-15 more potent than conjugate in inducing CD3, CD4, CD8 and Treg cells (human PBMCs; Table 7 data): 5-8 fold
IL-15 more potent than conjugate in inducing CD56bright and CD56dim cells (human PBMCs; Table 7 data): 40-60 fold
EC50 (ng/ml)-MFI CD3 donor1 (human PBMCs; pSTAT5 MFI, CD3 cells, donor1): 84.73 ng/mL
EC50 (ng/ml)-MFI CD3 donor2 (human PBMCs; pSTAT5 MFI, CD3 cells, donor2): 154.2 ng/mL
EC50 (ng/ml)-MFI Treg donor1 (human PBMCs; pSTAT5 MFI, CD4-Treg cells, donor1): 3.5 ng/mL
EC50 (ng/ml)-MFI Treg donor2 (human PBMCs; pSTAT5 MFI, CD4-Treg cells, donor2): 5.4 ng/mL
EC50 (ng/ml)-MFI CD4 donor1 (human PBMCs; pSTAT5 MFI, CD4 cells, donor1): 84.21 ng/mL
EC50 (ng/ml)-MFI CD4 donor2 (human PBMCs; pSTAT5 MFI, CD4 cells, donor2): 98.18 ng/mL
EC50 (ng/ml)-MFI CD8 donor1 (human PBMCs; pSTAT5 MFI, CD8 cells, donor1): 53.7 ng/mL
EC50 (ng/ml)-MFI CD8 donor2 (human PBMCs; pSTAT5 MFI, CD8 cells, donor2): 204.6 ng/mL
EC50 (ng/ml)-MFI CD56bright donor1 (human PBMCs; pSTAT5 MFI, CD56bright cells, donor1): 24.86 ng/mL
EC50 (ng/ml)-MFI CD56bright donor2 (human PBMCs; pSTAT5 MFI, CD56bright cells, donor2): 56.9 ng/mL
EC50 (ng/ml)-MFI CD56dim donor1 (human PBMCs; pSTAT5 MFI, CD56dim cells, donor1): 97.51 ng/mL
EC50 (ng/ml)-MFI CD56dim donor2 (human PBMCs; pSTAT5 MFI, CD56dim cells, donor2): 283.4 ng/mL

average EC50, STAT5 phosphorylation in CTLL-2 cells (CTLL-2 cells; 10-minute treatment, control): 0.00027 µg/mL
Substance: recombinant human IL-15: recombinant human IL-15 obtained from PeproTech, served as the control in the CTLL-2 assay [reference compound]

EC50 (ng/mL) CTLL-2 pSTAT5 (CTLL-2 cells): 6.21 ng/mL
pKd (IL-15Rα): 9.67
Substance: mono-PEG2-RU-ButryALD-20K]-IL-15 [Conjugate 4]
